Assay results from patent US12215106B2, “Pharmaceutical compounds and therapeutic methods” (RUTGERS, THE STATE UNIVERSITY OF NEW JERSEY, priority 2018, dated 2025).
Structures can show the parent of a compound that is named as a salt. Where two headings read alike, the source gives them in different places. Marks after values point to notes of the source that are not given here.

Test: Plasma pharmacokinetics and brain distribution after single IV, IP and oral administration
Format: in vivo
Conditions: male, C57BL/6, mouse
Description: (§1) The objective of this study was to investigate the plasma pharmacokinetics and brain distribution of Compound (14 in male C57BL/6 mice following a single intravenous, intraperitoneal and oral administration. A group of sixty-three male mice were divided into three groups (Group 1: 2 mg/kg/IV; Group 2: 10 mg/kg/IP and Group 3: 10 mg/kg/PO) with each group comprising of twenty-one mice.
Animals in Group 1 were administered intravenously with Compound 15 solution formulation in 5% NMP, 5% Solutol HS-15, 30% PEG-400 and 60% Captisol (20% w/v) at 2 mg/kg dose. […] Considering mortality intravenous dose was reduced to 2 mg/kg.
Animals in Group 2 and 3 were administered with Compound 15 solution formulation in 5% NMP, 5% Solutol HS-15, 30% PEG-400 and 60% Captisol (20% w/v) at a dose of 10 mg/kg by intraperitoneal and oral route respectively.
(§2) Blood samples (approximately 60 μL) were collected under light isoflurane anesthesia from retro orbital plexus from a set of three mice at 0.08, 0.35, 1, 3, 6, 12 and 24 hr. Plasma samples were separated by centrifugation of whole blood and stored below −70±10° C. until bioanalysis. Immediately after collection of blood, brain samples were collected from set of three mice at each time point. Brain samples were homogenized using ice-cold phosphate buffer saline (pH-7.4) in a ratio of 2 (buffer):1(brain); and homogenates were stored below −70±10° C. until analysis. Total homogenate volume was three times the brain weight. All samples were processed for analysis by protein precipitation using acetonitrile and analyzed with fit-for-purpose LC/MS/MS method (LLOQ2.00 ng/mL for plasma and 3.00 ng/g for brain). Pharmacokinetic parameters were calculated using the non-compartmental analysis tool of Phoenix WinNonlin® (Version 7.0). Pharmacokinetic parameters of Compound 15 are summarized below.
as §1, with “Compound 16” for “Compound (14”, “1: 10” for “1: 2”
Animals in Group 1 were administered intravenously with Compound 16 solution formulation in 5% NMP, 5% Solutol HS-15 and 90% normal saline at 10 mg/kg dose.
Animals in Group 2 and 3 were administered with Compound 16 solution formulation in 5% NMP, 5% Solutol HS-15 and 90% normal saline at a dose of 10 mg/kg by intraperitoneal and oral route respectively.
as §2, with “(LLOQ—1.00” for “(LLOQ2.00”, “16” for “15”
as §1, with “17” for “(14”, “mice. […]” for “mice.”

[1] = brain, ip, 10 mg/kg, IP 10 mg/kg, read-out: Brain-to-plasma ratio
[2] = brain, po, 10 mg/kg, PO 10 mg/kg, read-out: Brain-to-plasma ratio
[3] = brain/plasma, iv, 10 mg/kg, IV 10 mg/kg, read-out: Brain-to-plasma ratio
[4] = in vivo, ip, 10 mg/kg, Brain concentration, individual animal
[5] = in vivo, ip, 10 mg/kg, Mean brain conc.
[6] = in vivo, ip, 10 mg/kg, Mean plasma conc.
[7] = in vivo, ip, 10 mg/kg, Plasma concentration, individual animal
[8] = in vivo, iv, 10 mg/kg, Brain concentration, individual animal
[9] = in vivo, iv, 10 mg/kg, Mean brain conc.
[10] = in vivo, iv, 10 mg/kg, Mean plasma conc.
[11] = in vivo, iv, 10 mg/kg, Plasma concentration, individual animal
[12] = in vivo, po, 10 mg/kg, Brain concentration, individual animal
[13] = in vivo, po, 10 mg/kg, Mean brain conc.
[14] = in vivo, po, 10 mg/kg, Mean plasma conc.
[15] = in vivo, po, 10 mg/kg, Plasma concentration, individual animal

Compound: Cc1nc2ccccn2c1-c1csc(Nc2ccc3c(c2)OC(F)(F)O3)n1 [Compound 16, N-(2,2-difluorobenzo[d][1,3]dioxol-5-yl)-4-(2-methylimidazo[1,2-a]pyridin-3-yl)thiazol-2-amine hydrochloride]
- Kp at 3 h (brain and plasma, iv, 10 mg/kg, IV 10 mg/kg, read-out: Brain-to-plasma ratio): 1.6
- Kp at 0.08 h [1]: 0.78
- Kp at 0.35 h [1]: 1.6
- Kp at 1 h [1]: 2.01
- Kp at 3 h [1]: 4.34
- Kp (brain, ip, 10 mg/kg, IP 10 mg/kg, read-out: brain-to-plasma ratio, range over time): 0.78 to 4.34
- Kp (brain, iv, 10 mg/kg, IV 10 mg/kg, read-out: brain-to-plasma ratio, range over time): 0.96 to 2.78
- Kp at 0.08 h [2]: 1.07
- Kp at 0.35 h [2]: 1.83
- Kp at 1 h [2]: 1.67
- Kp at 3 h [2]: 1.73
- Kp at 6 h (brain, po, 10 mg/kg, PO 10 mg/kg, 6 hr, read-out: Brain-to-plasma ratio): 1.81
- Kp (brain, po, 10 mg/kg, PO 10 mg/kg, read-out: brain-to-plasma ratio, range over time): 1.07 to 1.81
- Kp (brain, po, 10 mg/kg, summary data, read-out: Brain to plasma ratio following a single oral dose): 1.81
- Kp at 0.08 h [3]: 1.05
- Kp at 0.35 h [3]: 0.96
- Kp at 1 h [3]: 2.78
- Brain concentrations quantifiable up to (in vivo, ip, 10 mg/kg): up to 3 hr
- Plasma concentrations quantifiable up to (in vivo, ip, 10 mg/kg): up to 3 hr
- Brain concentration, individual animal (in vivo, ip, 10 mg/kg, 6 h): 0.00 ng/g
- Plasma concentration, individual animal (in vivo, ip, 10 mg/kg, 6 h): 0.00 ng/mL
- Brain concentration, individual animal (in vivo, ip, 10 mg/kg, 12 h): 0.00 ng/g
- Plasma concentration, individual animal (in vivo, ip, 10 mg/kg, 12 h): 0.00 ng/mL
- Brain concentration, individual animal (in vivo, ip, 10 mg/kg, 24 h): 0.00 ng/g
- Plasma concentration, individual animal (in vivo, ip, 10 mg/kg, 24 h): 0.00 ng/mL
- concentration at 6 h [4]: 0 ng/g
- concentration at 12 h [4]: 0 ng/g
- concentration at 24 h [4]: 0 ng/g
- concentration at 0.08 h [5]: 558 ng/g
- concentration at 0.35 h [5]: 680 ng/g
- concentration at 1 h [5]: 159 ng/g
- concentration at 3 h [5]: 6.21 ng/g
- concentration at 6 h [5]: 0 ng/g
- concentration at 12 h [5]: 0 ng/g
- concentration at 24 h [5]: 0 ng/g
- concentration at 0.08 h [6]: 713 ng/mL
- concentration at 0.35 h [6]: 426 ng/mL
- concentration at 1 h [6]: 79.1 ng/mL
- concentration at 3 h [6]: 1.43 ng/mL
- concentration at 6 h [6]: 0 ng/mL
- concentration at 12 h [6]: 0 ng/mL
- concentration at 24 h [6]: 0 ng/mL
- concentration at 0.08 h [7]: 688 ng/mL
- concentration at 0.35 h [7]: 391 ng/mL
- concentration at 1 h [7]: 62 ng/mL
- concentration at 6 h [7]: 0 ng/mL
- concentration at 12 h [7]: 0 ng/mL
- concentration at 24 h [7]: 0 ng/mL
- Brain concentrations quantifiable up to (in vivo, iv, 10 mg/kg): up to 6 hr
- Vss, fold more than normal volume of total body water (0.7 L/kg) (in vivo, iv, 10 mg/kg): 6.6 fold
- Plasma concentration, individual animal (in vivo, iv, 10 mg/kg, 6 hr): 0.00 ng/mL
- Brain concentration, individual animal (in vivo, iv, 10 mg/kg, 12 hr): 0.00 ng/g
- Plasma concentration, individual animal (in vivo, iv, 10 mg/kg, 12 hr): 0.00 ng/mL
- Brain concentration, individual animal (in vivo, iv, 10 mg/kg, 24 hr): 0.00 ng/g
- Plasma concentration, individual animal (in vivo, iv, 10 mg/kg, 24 hr): 0.00 ng/mL
- concentration at 12 hr [8]: 0 ng/g
- concentration at 24 hr [8]: 0 ng/g
- concentration at 0.08 h [9]: 1660 ng/g
- concentration at 0.35 h [9]: 514 ng/g
- concentration at 1 h [9]: 225 ng/g
- concentration at 3 h [9]: 9.01 ng/g
- concentration at 6 hr [9]: 5.13 ng/g
- concentration at 12 hr [9]: 0 ng/g
- concentration at 24 hr [9]: 0 ng/g
- concentration at 0.08 h [10]: 1580 ng/mL
- concentration at 0.35 h [10]: 535 ng/mL
- concentration at 1 h [10]: 80.7 ng/mL
- concentration at 3 h [10]: 5.64 ng/mL
- concentration at 6 hr [10]: 0 ng/mL
- concentration at 12 hr [10]: 0 ng/mL
- concentration at 24 hr [10]: 0 ng/mL
- concentration at 0.08 hr [11]: 2190 ng/mL
- concentration at 0.35 hr [11]: 417 ng/mL
- concentration at 1 hr [11]: 60.9 ng/mL
- concentration at 6 hr [11]: 0 ng/mL
- concentration at 12 hr [11]: 0 ng/mL
- concentration at 24 hr [11]: 0 ng/mL
- Brain concentrations quantifiable up to (in vivo, po, 10 mg/kg): up to 12 hr
- Plasma concentrations quantifiable up to (in vivo, po, 10 mg/kg): up to 6 hr
- Brain concentration, individual animal (in vivo, po, 10 mg/kg, 0.08 h): 115.35 ng/g
- Mean plasma conc. (in vivo, po, 10 mg/kg, 3 h): 3.35^f ng/mL
- Plasma concentration, individual animal (in vivo, po, 10 mg/kg, 12 h): 0.00 ng/mL
- Plasma concentration, individual animal (in vivo, po, 10 mg/kg, 24 h): 0.00 ng/mL
- concentration at 0.08 h [12]: 221 ng/g
- concentration at 24 h [12]: 0 ng/g
- concentration at 0.08 h [13]: 187 ng/g
- concentration at 0.35 h [13]: 254 ng/g
- concentration at 1 h [13]: 48.9 ng/g
- concentration at 3 h [13]: 5.78 ng/g
- concentration at 6 h [13]: 4.52 ng/g
- concentration at 12 h [13]: 3.9 ng/g
- concentration at 24 h [13]: 0 ng/g
- concentration at 0.08 h [14]: 175 ng/mL
- concentration at 0.35 h [14]: 138 ng/mL
- concentration at 1 h [14]: 29.3 ng/mL
- concentration at 3 h [14]: 3.35 ng/mL
- concentration at 6 h [14]: 2.5 ng/mL
- concentration at 12 h [14]: 0 ng/mL
- concentration at 24 h [14]: 0 ng/mL
- concentration at 12 h [15]: 0 ng/mL
- concentration at 24 h [15]: 0 ng/mL
- bioavailability (plasma, po, 10 mg/kg, PO 10 mg/kg, AUClast considered, read-out: Oral bioavailability, % F): 20%
- bioavailability (plasma, po, 10 mg/kg, summary data, read-out: Oral bioavailability): 20%
- Tmax (plasma, IP 10 mg/kg): 4.8 min
- clearance (plasma, IV 10 mg/kg, read-out: CL, plasma clearance): 230 mL/min/kg
- half-life (plasma, IV 10 mg/kg, read-out: T1/2, terminal elimination half-life (converted)): 25.8 min
- Tmax (plasma, PO 10 mg/kg): 4.8 min
